molecular target: T1, CRF1 receptors (Homo sapiens, UniProt P34998); assay: CRF1 receptor radioligand binding assay ([125I]-oCRF competition, IMR-32 cell membranes); conditions: IMR-32 cell membranes, [125I]-oCRF 100 pM; read-out: Ki (CRF-1R)
T1 construct: endogenous in cells; host or cells: IMR-32 cells, transformed with 2.5 µM 5'-bromo-2'-deoxyuridine for 10 days; membrane preparation
T1 sequence (P34998 24-415): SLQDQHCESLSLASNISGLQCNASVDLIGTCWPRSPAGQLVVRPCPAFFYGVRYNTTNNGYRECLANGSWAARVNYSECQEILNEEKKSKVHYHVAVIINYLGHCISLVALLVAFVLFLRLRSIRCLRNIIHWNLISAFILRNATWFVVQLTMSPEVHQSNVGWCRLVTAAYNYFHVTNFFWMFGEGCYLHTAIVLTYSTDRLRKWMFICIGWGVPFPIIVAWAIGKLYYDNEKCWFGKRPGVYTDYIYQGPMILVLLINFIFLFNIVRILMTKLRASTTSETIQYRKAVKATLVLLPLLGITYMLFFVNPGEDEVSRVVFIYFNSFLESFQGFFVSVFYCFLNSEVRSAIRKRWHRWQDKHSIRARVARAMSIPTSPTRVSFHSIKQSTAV
Summary of the method: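 Buffer: Tris pH 7.2 with MgCl2, BSA, Triton X-100, aprotinin, leupeptin; reaction stopped with ice-cold wash and filtered. Nonspecific binding set with 10 μM oCRF.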

Ki [µM] | Molecule
< 0.01 | Cc1cc(C)c(N2CCCn3c2nc(C(F)(F)F)c3CN2CCCC2Cc2ccccc2)c(C)c1 (stereo not drawn) [Example 347, 3-(2-Benzyl-pyrrolidin-1-ylmethyl)-2-trifluoromethyl-8-(2,4,6-trimethyl-phenyl)-5,6,7,8-tetrahydro-imidazo[1,2-a]pyrimidine]
< 1 | (2,2,3,3,3-Pentafluoro-propyl)-(2,2,2-trifluoro-ethyl)-[2-trifluoromethyl-8-(2,4,6-trimethyl-phenyl)-8H-1,3a,8-triaza-cyclopenta[α]inden-3-ylmethyl]-amine [Example 162]
< 1 | Phenethyl-[2-trifluoromethyl-8-(2,4,6-trimethyl-phenyl)-8H-1,3a,8-triaza-cyclopenta[α]inden-3-ylmethyl]-(3,3,3-trifluoro-propyl)-amine [Example 168]
